Tests used:
Assay type in all cases: cell-based
[1] = Cytotoxicity against human HOP62 cell line; details: HOP-62 cells
[2] = Cytotoxicity against human HCT116 cell line; details: HCT-116 cells
[3] = Cytotoxicity against human SF539 cell line; details: SF-539 cells
[4] = Cytotoxicity against human UACC62 cell line; details: UACC-62 cells
[5] = Cytotoxicity against human SN12C cell line; details: SN12C cells
[6] = Cytotoxicity against human OVCAR-3 cell line; details: OVCAR-3 cells
[7] = Cytotoxicity against human DU145 cell line; details: DU-145 cells
[8] = Cytotoxicity against human MDA-MB-435 cell line; details: MDA-MB-435 cells

Row | SMILES | GI50 [1] | GI50 [2] | GI50 [3] | GI50 [4] | GI50 [5] | GI50 [6] | GI50 [7] | GI50 [8]
1 | COc1cc2c(c(OC)c1OC)C(=O)c1c-2n(CCCN=[N+]=[N-])c(=O)c2cc([N+](=O)[O-])ccc12 | 30.9 µM | 36.3 µM | 38.9 µM | 39.8 µM | > 100 µM | > 100 µM | > 100 µM | > 100 µM
2 | COc1ccc2c(c1)C(=O)c1c-2n(CCCCl)c(=O)c2cc([N+](=O)[O-])ccc12 | 0.295 µM | 0.794 µM | 0.027 µM | < 0.01 µM | < 0.01 µM | 3.39 µM | 0.036 µM | 3.24 µM
3 | COc1cc2c(cc1OC)-c1c(c3ccc([N+](=O)[O-])cc3c(=O)n1CCCN=[N+]=[N-])C2=O | 29.5 µM | 31.6 µM | 36.3 µM | 51.3 µM | 46.8 µM | > 100 µM | 87.1 µM | > 100 µM
4 | COc1cc2c(cc1OC)-c1c(c3ccc([N+](=O)[O-])cc3c(=O)n1CCCN)C2=O | 1.55 µM | 0.589 µM | 0.005 µM | 2.51 µM | 0.851 µM | 8.13 µM | 0.676 µM | 6.46 µM
5 | COc1cc2c(c(OC)c1OC)-c1c(c3ccc([N+](=O)[O-])cc3c(=O)n1CCCN=[N+]=[N-])C2=O | 15.5 µM | 14.1 µM | 13.5 µM | 32.4 µM | 30.2 µM | 45.7 µM | 70.8 µM | > 100 µM
6 | COc1ccc2c(c1)C(=O)c1c-2n(CCCN=[N+]=[N-])c(=O)c2cc([N+](=O)[O-])ccc12 | < 0.001 µM | < 0.001 µM | < 0.001 µM |  |  | 0.155 µM | < 0.001 µM | 0.251 µM
7 | COc1cc2c(c(OC)c1OC)C(=O)c1c-2n(CCCN)c(=O)c2cc([N+](=O)[O-])ccc12 | 0.676 µM | 0.138 µM | 1.35 µM | 6.61 µM | 2.09 µM | 1.05 µM | 1.15 µM | 1.07 µM
8 | COc1cc2c(c(OC)c1OC)-c1c(c3ccc([N+](=O)[O-])cc3c(=O)n1CCCBr)C2=O | 15.8 µM | 18.6 µM | 4.47 µM | 30 µM | 19.5 µM | > 100 µM |  | > 100 µM
9 | COc1ccc2c(c1OC)-c1c(c3ccc([N+](=O)[O-])cc3c(=O)n1CCCBr)C2=O | 21.9 µM | 19.1 µM |  | 18.2 µM | 36.3 µM | > 100 µM |  | 
10 | NCCCn1c2c(c3ccc([N+](=O)[O-])cc3c1=O)C(=O)c1cc3c(cc1-2)OCO3 | < 0.01 µM | < 0.01 µM | < 0.01 µM | 0.017 µM | < 0.01 µM | 0.302 µM | < 0.01 µM | 0.025 µM
11 | COc1cccc2c1-c1c(c3ccc([N+](=O)[O-])cc3c(=O)n1CCCCl)C2=O | 5.5 µM | 2.45 µM |  | 2.4 µM | 15.8 µM | 50.1 µM |  | 50.1 µM
12 | COc1cc2c(c(OC)c1OC)-c1c(c3ccc([N+](=O)[O-])cc3c(=O)n1CCCN)C2=O | 0.933 µM | 0.832 µM | 1.38 µM | 9.12 µM | 3.98 µM | 10.7 µM | 7.24 µM | 0.871 µM
13 | COc1ccc2c(c1)C(=O)c1c-2n(CCCN)c(=O)c2cc([N+](=O)[O-])ccc12 | < 0.01 µM | < 0.01 µM | < 0.01 µM | < 0.01 µM | < 0.01 µM |  |  | 
14 | COc1cc2c(cc1OC)-c1c(c3ccc([N+](=O)[O-])cc3c(=O)n1CCCBr)C2=O | 20.9 µM | 4.27 µM | 10.5 µM | 2.82 µM | 4.27 µM | 70.8 µM | 24.5 µM | 25.1 µM
15 | COc1ccc2c(c1OC)-c1c(c3ccc([N+](=O)[O-])cc3c(=O)n1CCCN=[N+]=[N-])C2=O | 5.01 µM | 2.95 µM | 5.24 µM | 4.57 µM | 11.5 µM | 56.2 µM | 4.9 µM | 72.4 µM
16 | COc1ccc2c(c1OC)-c1c(c3ccc([N+](=O)[O-])cc3c(=O)n1CCCN)C2=O | 8.32 µM | 1.51 µM | 1.35 µM | 1.1 µM | 0.977 µM | 14.1 µM | 0.832 µM | 9.12 µM
17 | COc1cc2c(c(OC)c1OC)C(=O)[C@@H]1c3ccc([N+](=O)[O-])cc3C(=O)N(CCCBr)[C@H]21 (relative stereo) | < 0.01 µM | < 0.01 µM | 0.468 µM | < 0.01 µM | 0.257 µM | < 0.01 µM | 1.02 µM | < 0.01 µM
18 | COc1cc2c(cc1OC)[C@@H]1[C@H](C2=O)c2ccc([N+](=O)[O-])cc2C(=O)N1CCCBr (relative stereo) | 13.8 µM | 4.57 µM | 11.7 µM | > 100 µM | 7.59 µM | 2.04 µM | 14.5 µM | 2.82 µM
